# Active and inactive are the calls of the source. No cut-off for these calls is given here.
# Legend:
# Cytochrome P450 2B6 = target: T1, Cytochrome P450 2B6 (Homo sapiens, UniProt P20813); experiment: Inhibition of CYP2B6 in human liver microsomes incubated in presence NADPH by LC-MS/MS analysis
# T1 sequence (P20813 whole entry): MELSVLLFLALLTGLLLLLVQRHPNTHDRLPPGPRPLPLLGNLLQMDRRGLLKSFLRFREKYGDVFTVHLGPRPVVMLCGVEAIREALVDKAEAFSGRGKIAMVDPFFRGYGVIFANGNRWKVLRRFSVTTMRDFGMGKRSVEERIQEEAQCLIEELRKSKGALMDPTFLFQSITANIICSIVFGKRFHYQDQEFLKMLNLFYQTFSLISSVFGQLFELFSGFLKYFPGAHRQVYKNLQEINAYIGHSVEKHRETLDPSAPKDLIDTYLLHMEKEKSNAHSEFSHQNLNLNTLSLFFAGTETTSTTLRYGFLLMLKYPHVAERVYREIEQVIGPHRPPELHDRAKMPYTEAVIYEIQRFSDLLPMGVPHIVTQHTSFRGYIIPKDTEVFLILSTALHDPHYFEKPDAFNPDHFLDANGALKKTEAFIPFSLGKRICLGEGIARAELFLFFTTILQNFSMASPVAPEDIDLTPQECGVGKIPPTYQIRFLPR
# [1] = Efflux ratio of apparent permeability from basolateral to apical side over apical to basolateral side in human Caco-2 cells at 10 uM incubated for 120 mins by LC-MS/MS analysis
# [2] = Metabolic stability in rat hepatocytes assessed as intrinsic clearance at 1 uM incubated for 90 mins by LC/MS/MS analysis; assay type: ADME, cell-based, Hepatocyte
# [3] = Apparent permeability across apical to basolateral side in human Caco-2 cells at 10 uM measured after 120 mins by LC-MS/MS analysis; settings: for Papp A→B at 2 h, 10 µM: Caco-2
# [4] = Microsomal stability in mouse liver microsomes assessed as intrinsic clearance at 1 uM incubated for 60 mins in presence of NADPH regenerating system by LC-MS/MS analysis; assay type: ADME, Microsome; settings: read-out: CLH
# [5] = Metabolic stability in human hepatocytes assessed as intrinsic clearance at 1 uM incubated for 90 mins by LC/MS/MS analysis; assay type: ADME, cell-based, Hepatocyte
# Cytochrome P450 2C19 = Cytochrome P450 2C19 (Homo sapiens, UniProt P33261); experiment: Inhibition of CYP2C19 in human liver microsomes incubated in presence NADPH by LC-MS/MS analysis
# Chain of Cytochrome P450 2C19 (P33261 whole entry): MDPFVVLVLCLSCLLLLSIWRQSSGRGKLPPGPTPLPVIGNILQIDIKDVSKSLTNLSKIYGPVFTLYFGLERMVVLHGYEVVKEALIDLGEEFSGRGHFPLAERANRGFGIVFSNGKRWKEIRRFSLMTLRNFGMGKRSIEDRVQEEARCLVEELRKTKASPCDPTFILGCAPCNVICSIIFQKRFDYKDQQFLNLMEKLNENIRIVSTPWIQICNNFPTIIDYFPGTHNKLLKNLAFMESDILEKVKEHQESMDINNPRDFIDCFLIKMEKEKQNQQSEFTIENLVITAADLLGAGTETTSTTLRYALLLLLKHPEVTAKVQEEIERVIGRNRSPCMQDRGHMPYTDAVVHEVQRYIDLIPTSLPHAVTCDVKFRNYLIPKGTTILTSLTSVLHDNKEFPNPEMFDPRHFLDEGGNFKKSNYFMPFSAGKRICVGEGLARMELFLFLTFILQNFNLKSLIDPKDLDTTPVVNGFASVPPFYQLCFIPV
# [6] = Metabolic stability in mouse hepatocytes assessed as intrinsic clearance at 1 uM incubated for 90 mins by LC/MS/MS analysis; assay type: ADME, cell-based, Hepatocyte
# [7] = Plasma protein binding in rat assessed as unbound fraction at 2 uM incubated for 4 hrs by LC/MS/MS based balanced dialysis method
# Homo sapiens [8] = organism: Homo sapiens; experiment: Selectivity index, ratio of IC50 for inhibition of recombinant human JAK2 to IC50 for inhibition of recombinant human JAK1
# Cytochrome P450 1A2 = target: T2, Cytochrome P450 1A2 (Homo sapiens, UniProt P05177); experiment: Inhibition of CYP1A2 in human liver microsomes incubated in presence NADPH by LC-MS/MS analysis
# T2 sequence (P05177 whole entry): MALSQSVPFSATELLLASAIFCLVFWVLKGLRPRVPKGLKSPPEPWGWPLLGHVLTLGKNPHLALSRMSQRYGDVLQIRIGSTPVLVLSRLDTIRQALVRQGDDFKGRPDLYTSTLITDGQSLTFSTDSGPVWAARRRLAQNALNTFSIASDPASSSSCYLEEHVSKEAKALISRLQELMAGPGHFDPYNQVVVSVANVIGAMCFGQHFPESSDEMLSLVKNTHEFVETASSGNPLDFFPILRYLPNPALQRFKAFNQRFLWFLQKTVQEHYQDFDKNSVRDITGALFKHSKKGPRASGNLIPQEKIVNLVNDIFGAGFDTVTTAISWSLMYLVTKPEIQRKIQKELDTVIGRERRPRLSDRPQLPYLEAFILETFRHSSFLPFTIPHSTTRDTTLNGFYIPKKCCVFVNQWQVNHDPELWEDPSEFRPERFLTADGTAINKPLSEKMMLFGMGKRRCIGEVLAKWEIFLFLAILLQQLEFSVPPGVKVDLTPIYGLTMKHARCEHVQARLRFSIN
# [9] = Plasma protein binding in mouse assessed as unbound fraction at 2 uM incubated for 4 hrs by LC/MS/MS based balanced dialysis method
# Homo sapiens [10] = organism: Homo sapiens; experiment: Selectivity index, ratio of IC50 for inhibition of recombinant human TYK2 to IC50 for inhibition of recombinant human JAK1
# Cytochrome P450 2C8 = target: T3, Cytochrome P450 2C8 (Homo sapiens, UniProt P10632); experiment: Inhibition of CYP2C8 in human liver microsomes incubated in presence NADPH by LC-MS/MS analysis
# T3 sequence (P10632 whole entry): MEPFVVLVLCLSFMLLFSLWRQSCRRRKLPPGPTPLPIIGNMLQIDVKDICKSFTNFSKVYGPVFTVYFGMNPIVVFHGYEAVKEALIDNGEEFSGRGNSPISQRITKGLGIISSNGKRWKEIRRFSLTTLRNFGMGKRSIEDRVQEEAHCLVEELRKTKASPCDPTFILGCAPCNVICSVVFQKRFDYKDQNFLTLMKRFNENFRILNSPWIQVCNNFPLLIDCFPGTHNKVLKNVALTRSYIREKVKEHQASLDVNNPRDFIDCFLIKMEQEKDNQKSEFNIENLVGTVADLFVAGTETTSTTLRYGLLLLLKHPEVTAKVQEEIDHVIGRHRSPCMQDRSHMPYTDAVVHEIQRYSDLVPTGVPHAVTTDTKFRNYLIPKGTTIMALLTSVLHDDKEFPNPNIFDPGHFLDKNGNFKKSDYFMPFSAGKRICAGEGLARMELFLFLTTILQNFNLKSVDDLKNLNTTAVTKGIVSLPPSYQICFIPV
# Cytochrome P450 2C9 = Cytochrome P450 2C9 (Homo sapiens, UniProt P11712); experiment: Inhibition of CYP2C9 in human liver microsomes incubated in presence NADPH by LC-MS/MS analysis
# Chain of Cytochrome P450 2C9 (P11712 whole entry): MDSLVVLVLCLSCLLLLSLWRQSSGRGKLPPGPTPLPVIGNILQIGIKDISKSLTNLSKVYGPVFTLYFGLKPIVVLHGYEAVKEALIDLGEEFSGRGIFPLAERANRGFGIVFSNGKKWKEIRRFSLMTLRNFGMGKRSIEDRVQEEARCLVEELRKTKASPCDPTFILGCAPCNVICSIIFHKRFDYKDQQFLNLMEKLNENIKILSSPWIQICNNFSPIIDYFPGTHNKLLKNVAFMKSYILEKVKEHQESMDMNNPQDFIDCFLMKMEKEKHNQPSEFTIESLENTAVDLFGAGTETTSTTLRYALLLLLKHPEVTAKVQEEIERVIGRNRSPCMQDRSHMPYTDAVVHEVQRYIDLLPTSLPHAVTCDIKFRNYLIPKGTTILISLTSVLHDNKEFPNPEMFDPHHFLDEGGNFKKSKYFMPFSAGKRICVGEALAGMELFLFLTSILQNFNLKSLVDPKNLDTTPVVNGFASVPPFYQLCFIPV
# [11] = Apparent permeability across basolateral to apical side in human Caco-2 cells at 10 uM measured after 120 mins by LC-MS/MS analysis
# [12] = Microsomal stability in human liver microsomes assessed as intrinsic clearance at 1 uM incubated for 60 mins in presence of NADPH regenerating system by LC-MS/MS analysis; assay type: ADME, Microsome; settings: read-out: CLH
# [13] = Plasma protein binding in human assessed as unbound fraction at 2 uM incubated for 4 hrs by LC/MS/MS based balanced dialysis method
# Cytochrome P450 2D6 = Cytochrome P450 2D6 (Homo sapiens, UniProt P10635); experiment: Inhibition of CYP2D6 in human liver microsomes incubated in presence NADPH by LC-MS/MS analysis
# Chain of Cytochrome P450 2D6 (P10635 whole entry): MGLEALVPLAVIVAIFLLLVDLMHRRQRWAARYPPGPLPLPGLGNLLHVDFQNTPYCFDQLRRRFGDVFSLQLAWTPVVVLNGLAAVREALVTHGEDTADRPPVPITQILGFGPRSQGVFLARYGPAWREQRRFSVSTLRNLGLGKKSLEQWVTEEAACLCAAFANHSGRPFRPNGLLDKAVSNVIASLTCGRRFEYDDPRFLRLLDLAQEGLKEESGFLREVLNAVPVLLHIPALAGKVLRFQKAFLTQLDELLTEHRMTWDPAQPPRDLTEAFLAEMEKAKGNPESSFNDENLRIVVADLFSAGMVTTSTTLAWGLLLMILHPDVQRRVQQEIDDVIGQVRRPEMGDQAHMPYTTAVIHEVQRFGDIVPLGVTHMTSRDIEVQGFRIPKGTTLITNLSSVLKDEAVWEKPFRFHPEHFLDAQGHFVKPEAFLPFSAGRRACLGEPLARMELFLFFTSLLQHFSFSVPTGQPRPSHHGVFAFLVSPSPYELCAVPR
# Cytochrome P450 3A4 = Cytochrome P450 3A4 (Homo sapiens, UniProt P08684); experiment: Inhibition of CYP3A4 in human liver microsomes incubated in presence NADPH by LC-MS/MS analysis
# Chain of Cytochrome P450 3A4 (P08684 whole entry): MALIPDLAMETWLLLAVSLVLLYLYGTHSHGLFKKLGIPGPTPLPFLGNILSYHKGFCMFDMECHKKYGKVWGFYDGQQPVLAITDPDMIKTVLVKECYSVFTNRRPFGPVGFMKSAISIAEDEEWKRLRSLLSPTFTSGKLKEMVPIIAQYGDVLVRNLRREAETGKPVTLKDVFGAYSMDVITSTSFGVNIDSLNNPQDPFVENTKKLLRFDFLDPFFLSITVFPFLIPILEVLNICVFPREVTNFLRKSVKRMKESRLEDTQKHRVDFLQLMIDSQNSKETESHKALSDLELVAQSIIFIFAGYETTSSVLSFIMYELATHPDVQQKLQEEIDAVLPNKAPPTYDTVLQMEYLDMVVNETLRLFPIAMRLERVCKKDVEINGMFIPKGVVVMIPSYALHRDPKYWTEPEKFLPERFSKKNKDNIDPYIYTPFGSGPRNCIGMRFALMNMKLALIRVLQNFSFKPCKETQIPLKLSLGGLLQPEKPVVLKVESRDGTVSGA
# [14] = Microsomal stability in rat liver microsomes assessed as intrinsic clearance at 1 uM incubated for 60 mins in presence of NADPH regenerating system by LC-MS/MS analysis; assay type: ADME, Microsome; settings: read-out: CLH
# Mus musculus [15] = experiment: Antiarthritic activity in collagen-induced rheumatoid arthritis DBA/1 mouse model assessed as reduction in incidence rate at 15 mg/kg, po BID administered for 14 days starting from 7 days before immunization to 21 days after immunization and measured post last dose; assay type: functional; parameters: scale not given: the % may be the effect or the level left; settings: time 14 day
# Mus musculus [16] = experiment: Antiarthritic activity in collagen-induced rheumatoid arthritis DBA/1 mouse model assessed as reduction in clinical score AUC at 15 mg/kg, po BID administered for 14 days starting from 7 days before immunization to 21 days after immunization and measured on day 41 post immunization; assay type: functional, organism-based; settings: time 14.0 day
IC50 (Cytochrome P450 2B6),CLH [2],"Papp A→B at 2 h, 10 µM [3]",microsomal CLint at 1 µM [4],CLH [5],IC50 (Cytochrome P450 2C19),CLH [6],"fraction unbound at 4 h, 2 µM [7]",IC50 (Cytochrome P450 1A2),"fraction unbound at 4 h, 2 µM [9]",IC50 (Cytochrome P450 2C8),IC50 (Cytochrome P450 2C9),"Papp B→A at 2 h, 10 µM [11]",microsomal CLint at 1 µM [12],"fraction unbound at 4 h, 2 µM [13]",IC50 (Cytochrome P450 2D6),IC50 (Cytochrome P450 3A4),microsomal CLint at 1 µM [14],SMILES,also measured
> 100 µM,< 6.4 µL/min/mg,4.36 ×10⁻⁶ cm/s,10.6 µL/min/mg,< 6.4 µL/min/mg,> 100 µM,15.3 µL/min/mg,0.196,> 100 µM,0.28,> 100 µM,> 100 µM,28.6 ×10⁻⁶ cm/s,< 9.6 µL/min/mg,0.306,> 100 µM,> 100 µM,< 9.6 µL/min/mg,O=C(Nc1nc2cccc(C3CCC(NC(=O)C4(F)CC4)CC3)n2n1)C1CC1 (stereo not drawn),"efflux ratio at 2 h, 10 µM [1]: 6.57; Ratio IC50 (Homo sapiens [8]): 11.6; Ratio IC50 (Homo sapiens [10]): 4.1"
> 100 µM,< 6.4 µL/min/mg,,< 9.6 µL/min/mg,< 6.4 µL/min/mg,88.2 µM,22.3 µL/min/mg,0.399,65.6 µM,0.316,> 100 µM,> 100 µM,24.5 ×10⁻⁶ cm/s,< 9.6 µL/min/mg,0.518,> 100 µM,,< 9.6 µL/min/mg,O=C(Nc1nc2cccc(-c3ccc(CN4CCS(=O)(=O)CC4)cc3)n2n1)C1CC1 [FILGOTINIB],"Papp ([3]; caco-2, 2 h, 10 µM): 0.28 10^-6 cm/s; Activity (Mus musculus [15]): 100%; Activity (Mus musculus [16]): Active"
> 100 µM,< 6.4 µL/min/mg,0.1 ×10⁻⁶ cm/s,< 9.6 µL/min/mg,< 6.4 µL/min/mg,> 100 µM,< 6.6 µL/min/mg,0.544,> 100 µM,0.479,> 100 µM,> 100 µM,20.4 ×10⁻⁶ cm/s,< 9.6 µL/min/mg,0.515,> 100 µM,> 100 µM,< 9.6 µL/min/mg,N#CCC(=O)N1CC2(CCC(c3cccc4nc(NC(=O)C5CC5)nn34)CC2)C1,

# From ChEMBL document CHEMBL5150077, “Identification of TUL01101: A Novel Potent and Selective JAK1 Inhibitor for the Treatment of Rheumatoid Arthritis” (J Med Chem, 2022)
